# Reference: BindingDB's records for doi:10.1021/jm031011g (Xenova, 2004)
# Columns and labels:
# [1] = target: Multidrug resistance-associated protein 1 (Homo sapiens) (UniProt P33527); test: Effective concentration to inhibit MRP1 in potentiation assay
# [2] = target: Multidrug resistance-associated protein 1 (Homo sapiens) (UniProt P33527); test: as above; remark: listed apart in the source
# Chain of Multidrug resistance-associated protein 1 (Homo sapiens) (P33527 whole entry, looked up): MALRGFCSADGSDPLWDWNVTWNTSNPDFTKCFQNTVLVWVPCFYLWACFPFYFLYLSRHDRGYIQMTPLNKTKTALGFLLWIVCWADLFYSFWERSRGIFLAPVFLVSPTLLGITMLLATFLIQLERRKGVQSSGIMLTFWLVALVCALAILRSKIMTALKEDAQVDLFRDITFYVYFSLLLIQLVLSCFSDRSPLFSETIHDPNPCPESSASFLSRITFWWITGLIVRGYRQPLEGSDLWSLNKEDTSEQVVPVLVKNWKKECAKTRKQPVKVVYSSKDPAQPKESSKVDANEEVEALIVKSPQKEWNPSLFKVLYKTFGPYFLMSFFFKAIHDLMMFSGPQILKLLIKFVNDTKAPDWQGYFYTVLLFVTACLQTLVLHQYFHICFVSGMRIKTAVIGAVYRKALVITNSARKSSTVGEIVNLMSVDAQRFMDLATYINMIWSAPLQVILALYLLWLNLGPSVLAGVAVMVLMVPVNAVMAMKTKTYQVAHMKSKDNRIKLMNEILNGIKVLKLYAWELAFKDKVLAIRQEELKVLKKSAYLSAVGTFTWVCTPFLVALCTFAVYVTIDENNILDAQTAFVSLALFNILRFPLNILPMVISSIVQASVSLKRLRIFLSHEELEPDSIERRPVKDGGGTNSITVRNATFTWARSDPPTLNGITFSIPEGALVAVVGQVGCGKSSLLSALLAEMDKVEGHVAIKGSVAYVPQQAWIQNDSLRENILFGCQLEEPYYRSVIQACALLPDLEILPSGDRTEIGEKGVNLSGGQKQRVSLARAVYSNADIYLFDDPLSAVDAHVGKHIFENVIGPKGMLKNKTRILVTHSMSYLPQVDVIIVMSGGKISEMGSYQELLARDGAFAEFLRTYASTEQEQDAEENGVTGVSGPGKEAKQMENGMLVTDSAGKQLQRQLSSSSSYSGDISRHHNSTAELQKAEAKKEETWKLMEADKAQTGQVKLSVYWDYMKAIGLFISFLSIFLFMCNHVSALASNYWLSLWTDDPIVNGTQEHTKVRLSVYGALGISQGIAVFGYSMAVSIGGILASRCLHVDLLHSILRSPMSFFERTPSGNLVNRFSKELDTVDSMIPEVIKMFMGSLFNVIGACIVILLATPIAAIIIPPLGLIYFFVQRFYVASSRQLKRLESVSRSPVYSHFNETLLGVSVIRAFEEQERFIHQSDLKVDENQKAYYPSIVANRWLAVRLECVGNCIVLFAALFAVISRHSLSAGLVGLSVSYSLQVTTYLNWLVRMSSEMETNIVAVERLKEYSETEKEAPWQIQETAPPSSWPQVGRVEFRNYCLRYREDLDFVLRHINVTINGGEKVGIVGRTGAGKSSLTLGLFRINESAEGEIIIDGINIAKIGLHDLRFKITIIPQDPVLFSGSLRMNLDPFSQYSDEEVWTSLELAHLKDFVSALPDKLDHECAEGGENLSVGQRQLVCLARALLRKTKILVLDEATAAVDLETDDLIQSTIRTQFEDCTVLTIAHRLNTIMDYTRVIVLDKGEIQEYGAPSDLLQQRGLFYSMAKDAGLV
EC50 [1] [nM],EC50 [2] [nM],SMILES
150,–,"COc1cccc(CNC(=O)c2c3n(c4c(N5CCN(CCc6ccc(F)c(F)c6)CC5)ncnc24)CCCC3)c1OC [4-{4-[2-(3,4-Difluoro-phenyl)-ethyl]-piperazin-1-yl}-6,7,8,9-tetrahydro-pyrimido[4,5-b]indolizine-10-carboxylic acid 2,3-dimethoxy-benzylamide]"
–,97,"O=C(NCc1ccccn1)c1c2n(c3c(N4CCN(CCc5ccc(F)c(F)c5)CC4)ncnc13)CCCC2 [4-{4-[2-(3,4-Difluoro-phenyl)-ethyl]-piperazin-1-yl}-6,7,8,9-tetrahydro-pyrimido[4,5-b]indolizine-10-carboxylic acid (pyridin-2-ylmethyl)-amide]"
–,117,"NC(=O)c1c2n(c3c(N4CCN(CCc5ccc(F)c(F)c5)CC4)ncnc13)CCCC2 [4-{4-[2-(3,4-Difluoro-phenyl)-ethyl]-piperazin-1-yl}-6,7,8,9-tetrahydro-pyrimido[4,5-b]indolizine-10-carboxylic acid amide]"
